# Experimental data as given in patent US9056139B2, “Fatty acid-salicylate conjugates with enhanced therapeutic properties” (KEAN UNIVERSITY, priority 2012, dated 2015).
# Tested on: HT-29 human adenocarcinoma cells
# Assay: Apoptosis induction in Human Adenocarcinoma cells (HT-29)
# Format: cell-based
# Settings: HT-29 cells, FIG. 18 and FIG. 19
smiles,measurement,value
"CC/C=C\C/C=C\C/C=C\C/C=C\C/C=C\C/C=C\CCC(=O)Oc1ccccc1C(=O)O [DHASPIR, 2-((4Z,7Z,10Z,13Z,16Z,19Z)-docosa-4,7,10,13,16,19-hexaenoyloxy)benzoic acid]",pro-apoptotic effect,same pro-apoptotic effect as the DHA/acetyl salicylate combination
